Source: patent US20070014736A1, “Methods of delivering corticotroph-derived glycoprotein hormone” (priority 2005, published 2007)
Blank lines part the entries; values can stand above or below the molecule they belong to.

What was measured:
[1] = tested on: differentiated 3T3 L1 adipocytes; assay: CRE-luciferase reporter assay in differentiated 3T3 L1 adipocytes; format: cell-based, murine
Description: (§1) Differentiated murine 3T3 L1 adipocytes and primary human adipocytes were used to study signal transduction of CGH. 3T3 L1 fibroblasts were differentiated into adipocytes and the cells were transduced with recombinant adenovirus containing a reporter construct, a firefly luciferase gene under the control of cAMP response element (CRE) enhancer sequences. This assay system detects cAMP-mediated gene induction downstream of activation of Gs-coupled G-protein coupled receptors (GPCR's). […] In a separate experiment, undifferentiated 3T3 L1 fibroblasts were transduced with the recombinant adenovirus. […] In another experiment, human primary adipocytes were also transduced with the recombinant adenovirus containing a reporter construct. Treatment of the human adipocytes with isoproterenol produced a 17-fold induction of luciferase expression.
(§2) Cells were cultured at 37° C. in an 8% CO2 humidified incubator. Cells were seeded to collagen-coated 96-well plates (Becton Dickinson, cat. #356407) at a density of 5,000 cells per well. […] Luciferase activity was measured on a microplate luminometer (PerkinElmer Life Sciences, Inc., model LB 96V2R) following automated injection of 40 μl of luciferase assay substrate into each well. […]

[2] = tested on: human primary adipocytes; assay: CRE-luciferase reporter assay in human primary adipocytes; format: cell-based
Description: as §1, §2

[3] = tested on: LPS-induced mild endotoxemia mouse model; assay: LPS-induced mild endotoxemia mouse model, serum cytokines; format: in vivo, mice
Description: An in vivo experiment was designed to examine the effect of CGH in a mouse model of LPS-induced mild endotoxemia. This model mimics acute endotoxemia/sepsis by challenging mice with a low, non-lethal dose of bacterial endotoxin (lipopolysaccharide, LPS). Serum is collected at various timepoints (1-8 hours) after intraperitoneal LPS injection and analyzed for altered expression of a wide variety of pro- and anti-inflammatory cytokines and acute phase proteins that mediate the inflammatory response. The model provides a means to assess the potential anti-inflammatory effects of therapeutic candidates during a robust inflammatory response. To initially assess the model, we measured proinflammatory cytokines in a pilot experiment to collect reference data for the model.
C57B1/6 mice (Charles River Laboratories; 5 mice/group) were treated i.p. with PBS, 0.2 mg/kg CGH in PBS, or 2 mg/kg CGH in PBS 1 hour prior to LPS challenge. The mice were then challenged with 25 ug of LPS i.p. and bled at 1 hour and 4 hours after LPS injection. Serum was analyzed for TNF[…] (1 hour) and IL-6 (4 hours) levels by ELISA.
To determine if CGH would potentiate the effect of a sub-maximal dose of glucocorticoid, groups of 10 C57B1/6 mice each were treated i.p. with PBS, 0.15 or 1.5 mg/kg Dex, 2 mg/kg CGH, or a combination of CGH and low or high doses of Dex, 1 hour prior to injection of 25 ug LPS i.p. As shown in TABLE 3 (Expt #2), either 2 mg/kg CGH or 1.5 mg/kg Dex treatment alone (1 hour prior to LPS) caused a significant drop in serum TNFα levels at 1 hour, as observed in previous experiments. The effects of CGH administered in conjunction with Dex on inhibition of TNFα production were greater than either dose of Dex alone.

[4] = tested on: neutrophil infiltration in the ears; assay: Neutrophil (Gr-1) histomorphometry of ears in DTH experiment #1; format: in vivo, mice; conditions: 1.5 mg/kg Dex i.p. at challenge (day 7)
Description: Ears from mice in DTH experiment #1 were analyzed by immunohistochemistry to assess which cell types were most affected by CGH treatment. Ears were fixed in Zinc/Tris buffer (2.3 mM calcium acetate/31.6 mM zinc acetate/36.7 mM zinc chloride in 0.1M Tris-HCL buffer, pH 7.4) for 24 hours at room temperature and stained with antibodies specific for CD4, CD8, CD11c, and Gr-1 (neutrophils). […] Ears were stained using a TechMate 500 autoimmunostainer (Biotech/Ventana) MIP protocol with some modifications. […] This step was followed, after a wash, by biotinylated rabbit anti-rat IgG secondary antibody (Dako, used at 10 ug/ml in PBS with 2% normal rabbit serum and 2% nonfat dry milk) for 45 min. The sections were then washed and treated with HP Block (1.5% H2O2 in 50% methanol) 3 times, 7 min each, followed by 25 min in avidin-biotin complex, 3 times of 4 min each in DAB (Diaminobenzidine), then with Methyl green for 10 min.
From this staining procedure, there was a clear reduction in the number of neutrophils infiltrating the ears of those mice treated with CGH or Dex, compared to the PBS-treated controls. Histomorphometry was performed to obtain the average pixel density of neutrophils per unit length (1 mm) present in the ear samples. Despite a fair amount of variability among each group, there was a significant reduction in neutrophil staining in the Dex and low dose CGH groups, as well as a nearly significant (p=0.0507) reduction in the high dose CGH group (see TABLE 5, p values).

[5] = tested on: adrenal glands; assay: Intraperitoneal recombinant CGH for two weeks, adrenal weight; format: in vivo, mice; conditions: 0.5 mg/kg Dex i.p. daily, day 15
Description: Summary: Mice were exposed to CGH through infection with adenovirus particles expressing GPHA2 and GPHB5, leading to overexpression and secretion of CGH from the liver of these animals. […] The hypertrophy was apparent in the inner cortical layers, the zona fasciculata and the zona reticularis. Similarly, mice were exposed to CGH through intraperitoneal injection of recombinant CGH protein alone, recombinant CGH protein along with the glucocorticoid Dexamethasone (Dex), Dex alone, or PBS alone daily for two weeks.
Sixteen C57BL/6 female mice at 8 weeks of age were separated into four groups. The first group received daily injections of 0.25 mg/kg of recombinant CGH protein intraperitoneally. The second group received daily injections of PBS using the same procedure. The third group received daily injections of 0.25 mg/kg of CGH plus 0.05 mg/kg Dex and the final group received 0.5 mg/kg Dex, alone. Animals were sacrificed on day 15 and the adrenal glands were isolated and weighed. Example 5 describes the expression and purification of recombinant CGH protein used in this experiment.

[6] = tested on: Delayed Type Hypersensitivity (DTH) reaction; assay: Delayed Type Hypersensitivity (DTH), change in ear thickness; format: in vivo, mice
[7] = molecular target: T1, thyroid-stimulating hormone receptor (TSHR) expressed on BHK cells (BHK-TSHR cells) (UniProt P16473 21-764, limits assumed); assay: radioligand saturation binding to BHK-TSHR cells, two-site non-linear regression, high-affinity site
T1 construct: whole, on cells; also called TSH receptor
Description: (§3) Binding reactions were terminated by removing the binding medium and the cell monolayers were washed three times with 1.0-2.0 ml of ice-cold PBS containing 1.0 mg/ml BSA and twice with 1.0-2.0 ml of ice cold albumin-free PBS. Cells were solubilized in 1.0 ml of 1.0N NaOH for 10 min at room temperature and cell-associated radioactivity was determined in a gamma counter. The measured radioactivity was normalized to cell number that was determined on plates of cells cultured in parallel. Binding data were analyzed by non-linear regression using Prizm 3.0 (GraphPad Software, San Diego, Calif.).

[8] = molecular target: T1, thyroid-stimulating hormone receptor …; assay: radioligand saturation binding to BHK-TSHR cells, two-site non-linear regression, low-affinity site
Description: as §3

[9] = tested on: parental BHK cells lacking the TSHR; assay: Binding of radioligands to parental BHK cells; conditions: data not shown
Description: as §3, with “BHK cells expressing murine or human TSHRs were cultured in Dulbecco's Modified Eagle's Medium [DMEM (high glucose)] containing 5% fetal bovine serum, 1% Glutamax, 1% sodium pyruvate, 250 nM methotrexate, and Geneticin ( 1/100). […] Plates of cells were placed on ice and washed twice with 1.0-2.0 ml of ice-cold PBS. […] Specific binding was determined in the presence (nonspecific binding) and absence (total binding) of unlabeled rhCGH (25.0 μg/ml) or TSH (10 μg/ml). Binding reactions” for “Binding reactions”

[10] = tested on: TSHR; assay: Binding of 125I-CGH and 125I-TSH to BHK cells expressing the TSHR; design: species or system murine or human
Description: as §3, with “BHK cells expressing murine or human TSHRs were cultured in Dulbecco's Modified Eagle's Medium [DMEM (high glucose)] containing 5% fetal bovine serum, 1% Glutamax, 1% sodium pyruvate, 250 nM methotrexate, and Geneticin ( 1/100). […] Plates of cells were placed on ice and washed twice with 1.0-2.0 ml of ice-cold PBS. […] Specific binding was determined in the presence (nonspecific binding) and absence (total binding) of unlabeled rhCGH (25.0 μg/ml) or TSH (10 μg/ml). Binding reactions” for “Binding reactions”

[11] = molecular target: T2, human TSHR (Homo sapiens, UniProt P16473); assay: Bioactivity in BHK cells with CRE-luciferase reporter and human TSHR; format: cell-based; conditions: CRE-luciferase reporter
T2 construct: expressed in transfected cells; host or cells: BHK cells

[12] = Expt 1, 1.5 mg/kg Dex i.p. at challenge (d7), 24 h
[13] = Expt 2, 1.5 mg/kg Dex i.p. at challenge (d7)
[14] = Expt 3, 1.5 mg/kg Dex i.p. at sensitization (d0-4)

Molecule: CC(C)NCC(O)c1ccc(O)c(O)c1 (centres unmarked) [isoproterenol, reference compound]
- induction of luciferase expression [1]: 80 fold
- induction of luciferase expression / reporter gene [2]: 17 fold

Molecule: C[C@@H]1C[C@H]2[C@@H]3CCC4=CC(=O)C=C[C@]4(C)[C@@]3(F)[C@@H](O)C[C@]2(C)[C@@]1(O)C(=O)CO [Dex, Dexamethasone, reference compound]
- IL-6, 4 hours ([3]; Expt 2, 0.15 mg/kg Dex): 37.1 ± 8.8 ng/mL
- TNFα, 1 hour ([3]; Expt 2, 0.15 mg/kg Dex): 1765 ± 589 pg/mL
- IL-6, 4 hours ([3]; Expt 2, 1.5 mg/kg Dex): 16.0 ± 4.9 ng/mL
- TNFα, 1 hour ([3]; Expt 2, 1.5 mg/kg Dex): 264 ± 138 pg/mL
- Pixel density: Neutrophils, left ear (PBS) [4]: 749 +/− 686
- Pixel density: Neutrophils, right ear (OVA) [4]: 3651 +/− 2779
- Average adrenal weight/100 g body weight [5]: 13.12 +/− 0.88
- Change in ear thickness, left ear (PBS) [6, 12]: 0.42 +/− 0.52 ×10^−3 inch
- Change in ear thickness, right ear (OVA) [6, 12]: 2.62 +/− 1.18 ×10^−3 inch
- Change in ear thickness, left ear (PBS) [6, 13]: 0.23 +/− 0.77 ×10^−3 inch
- Change in ear thickness, right ear (OVA) [6, 13]: 2.89 +/− 1.29 ×10^−3 inch
- Change in ear thickness, left ear (PBS) [6, 14]: 0.50 +/− 0.54 ×10^−3 inch
- Change in ear thickness, right ear (OVA) [6, 14]: 4.38 +/− 1.34 ×10^−3 inch

Continued, in another order:

- Kd [7]: 0.00119 µM
- Kd [8]: 2700 µM
B1: recombinant human Corticotroph-derived Glycoprotein Hormone (rhCGH), heterodimer of GPHA2 and GPHB5 (ligand)
chain 1: QEAVIPGCHLHPFNVTVRSDRQGTCQGSHVAQACVGHCESSAFPSRYSVLVASGYRHNITSVSQCCTISGLKKVKVQLQCVGSRREELEIFTARACQCDMCRLSRY
chain 2: ASSGNLRTFVGCAVREFTFLAKKPGCRGLRITTDACWGRCETWEKPILEPPYIEAHHRVCTYNETKQVTVKLPNCAPGVDPFYTYPVAIRCDCGACSTATTECETI
notes: correct NH2 termini reported; also called Thyrostimulin

- bioactivity compared to unlabeled counterpart [11]: no significant differences
B2: ^125I-CGH: rhCGH radiolabeled with 125I-Bolton Hunter Reagent (protein)
chain 1: QEAVIPGCHLHPFNVTVRSDRQGTCQGSHVAQACVGHCESSAFPSRYSVLVASGYRHNITSVSQCCTISGLKKVKVQLQCVGSRREELEIFTARACQCDMCRLSRY
chain 2: ASSGNLRTFVGCAVREFTFLAKKPGCRGLRITTDACWGRCETWEKPILEPPYIEAHHRVCTYNETKQVTVKLPNCAPGVDPFYTYPVAIRCDCGACSTATTECETI
- binding to parental BHK cells lacking the TSHR [9]: Little or no binding
- high affinity sites per cell [10]: 86,000 sites per cell
- Hill slope ([10]; specific-binding data): 1.08
- Bmax, high-affinity site ([10]; two-site model): 139±74 fmol/10^6 cells
- Bmax, low-affinity site ([10]; two-site model): 1.6±1.4×10^6 fmol/10^6 cells
